According to patent publication US20260206756A1, “COMPOUNDS AND METHODS OF TREATING OR PREVENTING A BACTERIAL INFECTION IN A PLANT” (Ohio State Innovation Foundation, priority 2023, published 2026):
≈ marks a conversion by molar mass, not a printed value. Entries after “also recorded” stand apart in the source; their conditions may differ. Like-named read-outs stand apart in the source and are kept apart here.

What was measured:
[1] = tested on: ‘California Wonder’ pepper seeds; assay: Phytotoxicity on pepper seeds (germination, root and shoot length); assay type: in vivo, Capsicum annuum; settings: 14 days post treatment; PCs 200 μM; 1.2% thymol; 2% 2,4-D
Protocol: (§1) Phytotoxicity of the ten selected PCs on pepper tissues. The toxicity of the PCs to plant tissues was assessed on pepper seeds, seedlings, and fruits. […]
Toxicity on seeds. In 2 ml sterile glass vials, 1.5 ml of 1% molten water agar was prepared and supplemented with 200 μM of PCs. Four seeds (‘California Wonder’) were sown into the vials. […] After incubation, seed germination percentage, germling root and shoot length, and necrotic and chlorotic symptoms were recorded from eight treated seeds per treatment group. This was performed twice.

[2] = tested on: ‘Sunset’ sweet bell pepper fruit; assay: Phytotoxicity on bell pepper fruits; assay type: in vivo, Capsicum annuum; settings: 7 days post treatment; PCs 200 μM; 1.2% thymol; 2% 2,4-D
Protocol: as §1
Toxicity on bell pepper fruits. Pepper fruits were thoroughly washed in soapy water and dried prior to PC treatment. On the surface of each fruit Sul of the PCs (200 μM final concentration) were deposited and air dried under a laminar hood for 30 min. The fruits were incubated in the dark at room temperature and monitored daily for necrotic and chlorotic symptoms. This was performed twice.

[3] = tested on: ‘California Wonder’ pepper seedlings; assay: Phytotoxicity on pepper seedling cotyledons; assay type: in vivo, Capsicum annuum; settings: 7 days post application; PCs 200 μM; 1.2% thymol; 2% 2,4-D
Protocol: as §1
Toxicity on seedlings. ‘California Wonder’ pepper seeds were sown in sterile 2 ml glass vials containing 1.5 ml of 1% molten water agar. Four seeds were sown in each vial and incubated for 14 days in the dark at room temperature for the seedlings to sprout. Fifty microliters of PCs (200 μM final concentration) were deposited onto the cotyledons of the seedlings and incubated for another 7 days. After 7 days, necrotic and chlorotic symptoms were assessed for 16 treated seedlings per treatment group. This was performed twice.

[4] = tested on: Pss SM1042-14R on pepper seedlings; assay type: in vivo, Pseudomonas syringae pv. syringae; settings: 200 μM, 7 dpi; for Pseudomonas leaf spot incidence, Curative application / Pseudomonas leaf spot incidence, Preventative application: streptomycin 200 μg/ml, CuSO4 200 μM
[5] = tested on: Pseudomonas syringae pv. syringae (Pss) SM1031-14; assay: Dose-response assay (MIC/MBC) in M9 minimal broth; settings: Pseudomonas syringae, 48 h
Protocol: (§2) Primary screening of 4,182 SMs was conducted using a high throughput screening method to identify SMs that inhibited the growth of Pss SM1042-14R strain. A fresh bacterial culture of SM1042-14R was grown in M9 minimal broth in a shaking incubator (180 rpm) for 12 h at 28° C. The bacterial culture was normalized to a final optical density (OD600) of 0.05 (c.a., 8.0×10^7 CFU/ml) using a Genesys 20 spectrophotometer (Thermo Scientific, Rockford, IL, USA). In a sterile flat-bottom 96-well plate, 98 μl of the normalized bacterial suspension was challenged with 2 μl of SMs (final concentration of 200 μM). Controls were bacteria challenged with 2% DMSO (positive control; μc+), 50 μg/ml kanamycin (negative control; μc−), or M9 broth alone (blank control). The plate was incubated in a Sunrise Tecan kinetic microplate reader (Tecan Group Ltd., San Jose, CA, USA) for 48 h at 28° C. OD600 was measured every 30 min.
(§3) The plate was agitated for 15 s at 180 rpm before reading the OD600. Growth inhibition of SM1042-14R by the SMs was calculated using the following formula: % of inhibition=(μc+−X)/(μc+−μc−)×100, where μc+ and μc− is the average final OD600 of the positive and negative controls, respectively, and X is the final OD600 of each of the bacterial culture treated with a designated SM. After the 48 h of incubation with the SMs at 28° C., the viability of the bacterial culture was assessed by plating 5 μl of the culture on YDC (Yeast Dextrose Carbonate) agar medium, incubating the plate at 28° C. and monitoring any bacterial colonies on the plate after 48 h.
(§4) A dose-response assay was conducted with the 15 PCs identified during the primary screening against 10 Pss strains including the model strain, SM1042-14R. The dose-response assay was conducted as described above with concentrations of PCs ranging from 3.125 to 500 μM. Pss treated with non-amended M9 minimal media, 2% DMSO, or 50 μg/ml kanamycin were used as controls. The plate was incubated in a Sunrise Tecan kinetic microplate reader for 48 h at 28° C. The percentage of inhibition and cell viability were determined as described above.

[6] = tested on: Pseudomonas syringae pv. syringae (Pss) SM1038-14; assay: Dose-response assay (MIC/MBC) in M9 minimal broth; settings: Pseudomonas syringae, 48 h
Protocol: (§5) Minimum inhibitory concentration (MIC) and minimum bactericidal concentration (MBC) of the 15 PCs against 10 Pss strains. A dose-response assay was conducted with the 15 PCs identified during the primary screening against 10 Pss strains including the model strain, SM1042-14R. The dose-response assay was conducted as described above with concentrations of PCs ranging from 3.125 to 500 μM. Pss treated with non-amended M9 minimal media, 2% DMSO, or 50 μg/ml kanamycin were used as controls. The plate was incubated in a Sunrise Tecan kinetic microplate reader for 48 h at 28° C. The percentage of inhibition and cell viability were determined as described above.

[7] = tested on: ten Pss strains; assay: Dose-response assay (MIC/MBC), summary across ten Pss strains; assay type: cell-based, Pseudomonas syringae pv. syringae; settings: Pseudomonas syringae; across the different Pss strains; M9 broth; read-out: MICs and MBCs
[8] = tested on: Pseudomonas syringae pv. syringae (Pss) SM109-18; assay: Dose-response assay (MIC/MBC) in M9 minimal broth; settings: Pseudomonas syringae, 48 h
Protocol: as §2, §3, §4

[9] = tested on: Pseudomonas syringae pv. syringae (Pss) SM1030-14; assay: Dose-response assay (MIC/MBC) in M9 minimal broth; settings: Pseudomonas syringae, 48 h
Protocol: as §2, §3, §4

[10] = tested on: Pseudomonas syringae pv. syringae (Pss) SM914-13; assay: Dose-response assay (MIC/MBC) in M9 minimal broth; settings: Pseudomonas syringae, 48 h
Protocol: as §5

[11] = tested on: Pseudomonas syringae pv. syringae (Pss) SM155-18; assay: Dose-response assay (MIC/MBC) in M9 minimal broth; settings: Pseudomonas syringae, 48 h
Protocol: as §2, §3, §4

[12] = tested on: Pseudomonas syringae pv. syringae (Pss) SM156-18; assay: Dose-response assay (MIC/MBC) in M9 minimal broth; settings: Pseudomonas syringae, 48 h
Protocol: as §5

[13] = tested on: Pseudomonas syringae pv. syringae (Pss) SM04-2018-04; assay: Dose-response assay (MIC/MBC) in M9 minimal broth; settings: Pseudomonas syringae, 48 h
Protocol: as §5

[14] = tested on: Pseudomonas syringae pv. syringae (Pss) SM51-19; assay: Dose-response assay (MIC/MBC) in M9 minimal broth; settings: Pseudomonas syringae, 48 h
Protocol: as §5

[15] = tested on: Pss SM1042-14R in infested pepper seeds; assay: Antimicrobial efficacy on pepper seeds artificially infested with Pss; assay type: in vivo, Pseudomonas syringae pv. syringae; settings: 30 dpi, 200 μM, 20 min soak
Protocol: Antimicrobial efficacy of ten selected PCs on pepper seeds artificially infested with Pss SM1042-14R. ‘California Wonder’ pepper seeds were used for artificial infestation with Pss SM1042-14R and PC treatment. Inoculum of Pss SM1042-14R was prepared by growing SM1042-14R in M9 minimal medium overnight as described above. The OD600 was adjusted to 0.1; approximately 1×10^8 CFU/ml. The adjusted inoculum (45 ml of inoculum for 4 g seeds) was transferred to a sterile glass beaker and placed in a Nucerite desiccator (Nalge Sybron, Milwaukee, WI, USA). Seeds were vacuum infiltrated with inoculum at 15 PSI for 5 min. Infested seeds were air-dried in a laminar flow hood at room temperature for 12 h. The dried seeds were transferred to 5 ml sterile tubes and soaked in 1 ml of PCs (200 μM) diluted in sterile water for 20 min. The seeds were air-dried again. Seed aliquots were collected at 1, 3-, 10-, 20-, and 30-days post infestation (dpi, 10 seeds per treatment group per time point). Bacterial populations were estimated by macerating five batches of two seeds per treatment group in 400 μl of 1×PBS in a Whirl Pak bag. […] This was performed twice.

[16] = tested on: Pss SM1042-14R; assay: Antimicrobial resistance studies (single step and sequential passage); settings: Pseudomonas syringae, SM104214R
Protocol: Antimicrobial resistance studies. […] For the single-step resistance, M9 agar medium amended with 2×MBC of PCs was prepared in a sterile 24-well plate. An overnight culture of SM1042-14R was normalized to OD600 of 1.0 (approximately 10^9 CFU/well). In each of the wells containing different PCs, 50 μl of the adjusted bacterial culture was plated onto the 24 well agar plate. The plate was sealed using parafilm and incubated in the dark at 28° C. for 15 days. After 15 days, any colonies that grew on the 24-well plate were evaluated for MIC and MBC as described above. The experiment was conducted with three replicates per treatment group. SM1042-14R plated on non-amended M9 agar medium, 2% DMSO or 50 μg/ml kanamycin were used as controls.
For sequential passage (sublethal dose) resistance assay, SM1042-14R was grown in M9 minimal broth and adjusted to OD600 of 0.05 (approximately 10^7 CFU/ml). In a 96-well plate, 98 μl of the adjusted bacterial culture was transferred and 0.75×MBC of PC (concentration that allows approximately 70% growth inhibition) was added into the wells. Plates were incubated at 28° C. with 150 rpm shaking for 24 h in the dark. After incubation, cells were centrifuged, the pellet was resuspended in fresh M9 broth amended with 0.75×MBC of PC and grown as described above. […] After 15 passages, MIC, and MBC of the PCs to SM1042-14R were determined as described above. […]

[17] = tested on: pollinator honeybees; assay: Honeybee acute topical contact toxicity bioassay; assay type: in vivo; settings: 48 h, PCs 200 μM, thiamethoxam 0.35 μg per bee
Protocol: Toxicity of the ten PCs on pollinator honeybees. To determine whether the ten selected PCs were toxic to honeybees, an acute topical bioassay was used as recommended by the Ecological Effects Test Guidelines (OCSPP 8503020: Honeybee Acute Contact Toxicity Test). Frames of late stage capped brood were collected from two healthy colonies headed by New Carniolan queens maintained at The Ohio State University Wooster Campus. New adult bees were allowed to emerge in a dark incubator maintained at 32° C. and 60-80% relative humidity and brushed into bulk storage cages daily. Bees were fed sucrose in water (1:1 w/w) and aged for three days in the incubator. Cages of 3-day-old honeybees were anesthetized using carbon dioxide for 2 min and separated into groups of 20 housed in paper cups (UNIQ 6 oz Cups; Frozen Dessert Supplies, Rexburg, Idaho, USA) covered with #20 cotton cheesecloth. The ten PCs were prepared at 200 μM concentration in DMSO. Small groups of honeybees were anaesthetized again with 30 s of carbon dioxide before topical application. The honeybees were individually treated by topically applying lul of the PCs on the dorsal side of thorax using a micro applicator (Hamilton PB-600, Reno, Nevada, USA). […] The mortality of the bees was recorded daily for 48 h. […]

[18] = preventative (1 day prior to inoculation)

Row | SMILES | Pseudomonas leaf spot incidence, Curative application [4] [%] | Pseudomonas leaf spot incidence, Preventative application [4] [%] | Pss reduction compared to the DMSO group ([4]; curative (1 dpi)) [log CFU/g] | MBC [5] [µM] | MIC [5] [µM] | MBC [6] [µM] | MIC [6] [µM] | MBC [7] [µM] | MBC [8] [µM] | MIC [8] [µM] | MBC [9] [µM] | MIC [9] [µM] | MBC [10] [µM] | MIC [10] [µM] | MBC [11] [µM] | MIC [11] [µM] | MBC [12] [µM] | MIC [12] [µM] | MBC [13] [µM] | MIC [13] [µM] | also measured
1 | O=C(O)COc1ccc(Cl)cc1Cl [2,4-D] | – | – | – | – | – | – | – | – | – | – | – | – | – | – | – | – | – | – | – | – | root length of germlings [1]: 1.5±0.7 cm; shoot length of germlings [1]: 0 cm; necrotic or chlorotic symptoms on pepper fruit surface [2]: severe necrotic and chlorotic symptoms; also recorded: caused chlorosis and deformation of the fruit surface; necrotic or chlorotic symptoms on seedling cotyledons [3]: severe necrotic and chlorotic symptoms; also recorded: caused necrotic or chlorotic symptoms
2 | COc1cc(CN(C)Cc2ccccc2)ccc1OCC(O)CN1CCCCCCC1 (stereo not drawn) [PC9] | 71 | 100 | 1.9±0.7 | 200 (≈ 85.3 µg/mL) | 200 (≈ 85.3 µg/mL) | 200 (≈ 85.3 µg/mL) | 100 (≈ 42.7 µg/mL) | 50 to 200 (≈ 21.3 to 85.3 µg/mL) | 200 (≈ 85.3 µg/mL) | 100 (≈ 42.7 µg/mL) | 200 (≈ 85.3 µg/mL) | 100 (≈ 42.7 µg/mL) | 200 (≈ 85.3 µg/mL) | 200 (≈ 85.3 µg/mL) | 200 (≈ 85.3 µg/mL) | 100 (≈ 42.7 µg/mL) | 200 (≈ 85.3 µg/mL) | 200 (≈ 85.3 µg/mL) | 200 (≈ 85.3 µg/mL) | 100 (≈ 42.7 µg/mL) | MBC [14]: 200 µM (≈ 85.3 µg/mL); MIC [14]: 100 µM (≈ 42.7 µg/mL)
3 | Cn1cc(CNCCCn2ccnc2)c(-c2ccc(Oc3ccccc3)cc2)n1 [PC10] | 71 | 100 | – | 200 (≈ 77.5 µg/mL) | 200 (≈ 77.5 µg/mL) | 200 (≈ 77.5 µg/mL) | 200 (≈ 77.5 µg/mL) | 50 to 200 (≈ 19.4 to 77.5 µg/mL) | 200 (≈ 77.5 µg/mL) | 200 (≈ 77.5 µg/mL) | 200 (≈ 77.5 µg/mL) | 200 (≈ 77.5 µg/mL) | 200 (≈ 77.5 µg/mL) | 200 (≈ 77.5 µg/mL) | 200 (≈ 77.5 µg/mL) | 200 (≈ 77.5 µg/mL) | 200 (≈ 77.5 µg/mL) | 200 (≈ 77.5 µg/mL) | 200 (≈ 77.5 µg/mL) | 200 (≈ 77.5 µg/mL) | reduction in Pss load in infested seeds [15]: 1.9±0.2 log CFU/g; MBC [14]: 200 µM (≈ 77.5 µg/mL); MIC [14]: 200 µM (≈ 77.5 µg/mL)
4 | [H]/N=C(/N)N[C@H]1[C@H](O)[C@@H](O)[C@H](O[C@@H]2O[C@@H](C)[C@](O)(C=O)[C@H]2O[C@@H]2O[C@@H](CO)[C@H](O)[C@@H](O)[C@@H]2NC)[C@@H](N/C(N)=N\[H])[C@@H]1O [streptomycin] | 86 | 71 | 2.2±0.5 | – | – | – | – | – | – | – | – | – | – | – | – | – | – | – | – | – | Pseudomonas leaf spot incidence, Curative application ([4]; listed as Strep): 86%; Pseudomonas leaf spot incidence, Preventative application ([4]; listed as Strep): 71%; disease severity (number of lesions per two leaves) ([4]; curative (1 dpi), first trial): 24.4±18.2 lesions; disease severity (number of lesions per two leaves) [4, 18]: 88.8±62.5 lesions; reduction in Pss load compared to the DMSO group [4, 18]: 1.7±0.8 log CFU/g; MBC ([16]; SM1042-14R colonies after the sequential passages resistance assay): > 25 µg/mL; MBC ([16]; original culture from glycerol stock): 12.5 µg/mL (≈ 21.5 µM); reduction in Pss load in infested seeds [15]: 2.0±0 log CFU/g
5 | CN1COCN(Cc2cnc(Cl)s2)/C1=N\[N+](=O)[O-] [thiamethoxan, thiamethoxam] | – | – | – | – | – | – | – | – | – | – | – | – | – | – | – | – | – | – | – | – | honeybee mortality [17]: 100%
